Like-named read-outs stand apart in the source and are kept apart here.
Legend:
[1] = biological target: T1, soluble guanylate cyclase (sGC) (Homo sapiens (Human), UniProt Q02108+Q02153); experiment: sGC-HEK-cGMP assay run in the absence of SNP (HEK WC assay); format: cell-based; settings: compound at 30 μM, absence of SNP
Summary of the method: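 Intracellular cGMP was measured by LC/MS, using a standard curve, in HEK293 cells treated with compound for 10 min at 37° C after a 15 min 0.5 mM IBMX pretreatment, with no SNP present. Lysis and quench used 0.1 M HCl. EC50 values came from concentration-response fits.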

[2] = biological target: T1, soluble guanylate cyclase (sGC); experiment: sGC-HEK-cGMP assay run with SNP incubation (HEK WC assay); format: cell-based; settings: for HEK WC Assay (fold increase at 30 μM in the presence of 10 μM SNP): compound at 30 μM; for Emax at 10 µM: read-out: HEK WC Assay (% Emax at 10 μM/with 10 uM SNP); for Emax at 30 µM: read-out: HEK WC Assay (% Emax at 30 μM/with 10 uM SNP); for EC50: in the presence of 10 uM SNP
Summary of the method: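 EC50 values derive from concentration-response curves of intracellular cGMP in HEK293 cells, which express sGC endogenously. Compound and sodium nitroprusside were co-incubated 10 min at 37 °C after a 15-min 0.5 mM IBMX step, with 0.1 M HCl lysis and 1% DMSO vehicle.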

[3] = biological target: T2, Human soluble guanylate cyclase enzyme (hsGC) (Homo sapiens (Human), UniProt Q02108+Q02153); experiment: Purified human sGC enzyme activity assay; format: biochemical; settings: 30 μM compound, without the addition of SNP
Summary of the method: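 Values are fold-change of sGC specific activity, nmoles cGMP per mg enzyme per min, relative to DMSO controls. Reactions: 5 ng human enzyme, 300 μM GTP, 1 mM IBMX, 2 mM MgCl2/DTT, 0.1 M Tris pH 8.0, compound 10 or 30 μM final, 37° C for 30 minutes, methanol quench. cGMP read against a 0.078-10 μM final standard curve.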

[4] = biological target: T2, Human soluble guanylate cyclase enzyme (hsGC); experiment: Purified human sGC enzyme synergy assay in the presence of 1 μM sodium nitroprusside (SNP); format: biochemical; settings: 30 μM compound, with the addition of SNP
Summary of the method: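 Fold-change in cGMP-forming specific activity (nmol/mg/min) versus DMSO, with 1 μM SNP present throughout. Reactions held 30 min at 37 °C with 10 or 30 μM compound, 5 ng human sGC, 300 μM GTP, 1 mM IBMX and 2 mM MgCl2 at pH 8.0, then stopped with cold methanol.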

Thoracic aortic rings = experiment: Alternative thoracic aortic rings assay (Example 19b; resting tension as 100% inhibition); design: species or system rat; settings: Table 10A; for inhibition at 1 µM / inhibition at 3 µM / inhibition at 10 µM / EC50: Rattus norvegicus; for inhibition at 1 µM: read-out: Percent Relaxation at 1 μM; for inhibition at 3 µM: read-out: Percent Relaxation at 3 μM; for inhibition at 10 µM: read-out: Percent Relaxation at 10 μM; for EC50: read-out: Aortic Ring EC50
Summary of the method: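 EC50 values come from cumulative concentration-response relaxation of phenylephrine (100 ng/mL)-contracted thoracic aortic rings from 275-299 g male Sprague-Dawley rats. Rings were equilibrated at 1.0 g tension in oxygenated Krebs-Henseleit at 37 °C, with compounds given in DMSO and tension measured isometrically.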

[5] = read-out: HEK WC Assay (% Emax at 10 μM with 10 uM SNP)
[6] = read-out: HEK WC Assay (% Emax at 30 μM with 10 uM SNP)
[7] = read-out: HEK WC Assay in the presence of 10 uM SNP EC50

T1 sequence (Q02153 whole entry): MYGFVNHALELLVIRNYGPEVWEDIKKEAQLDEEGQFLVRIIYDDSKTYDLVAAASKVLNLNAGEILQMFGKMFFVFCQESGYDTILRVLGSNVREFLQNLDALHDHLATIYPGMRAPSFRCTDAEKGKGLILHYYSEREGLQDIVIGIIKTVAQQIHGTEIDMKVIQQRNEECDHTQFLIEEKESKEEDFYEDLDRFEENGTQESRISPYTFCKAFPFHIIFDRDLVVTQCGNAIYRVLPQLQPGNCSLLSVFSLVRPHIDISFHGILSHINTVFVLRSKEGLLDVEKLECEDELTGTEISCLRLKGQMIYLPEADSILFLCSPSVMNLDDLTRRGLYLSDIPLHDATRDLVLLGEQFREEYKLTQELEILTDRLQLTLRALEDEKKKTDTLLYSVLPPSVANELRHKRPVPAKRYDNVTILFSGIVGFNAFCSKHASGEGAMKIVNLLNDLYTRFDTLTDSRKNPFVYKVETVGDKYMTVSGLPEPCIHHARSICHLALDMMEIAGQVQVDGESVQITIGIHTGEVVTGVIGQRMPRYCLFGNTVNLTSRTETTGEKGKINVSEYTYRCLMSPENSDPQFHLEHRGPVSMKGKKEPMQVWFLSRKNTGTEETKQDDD
T1 sequence (Q02108 whole entry): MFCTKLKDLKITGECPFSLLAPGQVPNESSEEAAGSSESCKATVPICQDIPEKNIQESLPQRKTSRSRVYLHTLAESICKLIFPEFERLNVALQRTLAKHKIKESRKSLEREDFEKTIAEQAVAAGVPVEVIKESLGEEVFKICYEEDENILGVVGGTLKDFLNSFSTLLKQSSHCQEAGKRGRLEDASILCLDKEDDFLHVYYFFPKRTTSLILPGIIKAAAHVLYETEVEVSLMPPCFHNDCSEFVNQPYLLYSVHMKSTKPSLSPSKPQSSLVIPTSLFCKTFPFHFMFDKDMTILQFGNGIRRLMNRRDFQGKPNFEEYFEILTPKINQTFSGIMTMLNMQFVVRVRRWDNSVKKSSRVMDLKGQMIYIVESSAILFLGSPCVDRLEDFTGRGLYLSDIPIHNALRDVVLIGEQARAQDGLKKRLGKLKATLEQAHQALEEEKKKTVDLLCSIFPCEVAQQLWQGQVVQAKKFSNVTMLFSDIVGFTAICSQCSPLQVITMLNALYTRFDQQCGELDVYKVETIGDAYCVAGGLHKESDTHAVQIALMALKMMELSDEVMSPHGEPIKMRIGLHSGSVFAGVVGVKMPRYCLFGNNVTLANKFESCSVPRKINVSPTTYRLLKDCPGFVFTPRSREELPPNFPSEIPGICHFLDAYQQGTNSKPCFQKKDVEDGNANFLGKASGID
T2 sequence (Q02153 whole entry): as the sequence (Q02153 whole entry) above
T2 sequence (Q02108 whole entry): as the sequence (Q02108 whole entry) above

Row | SMILES | HEK WC Assay (fold increase at 30 μM in the absence of SNP) [1] | HEK WC Assay (fold increase at 30 μM in the presence of 10 μM SNP) [2] | Emax [2, 5] | Emax at 10 µM [2] | Emax [2, 6] | Emax at 30 µM [2] | sGC Enzyme (fold increase at 30 μM) [3] | sGC Enzyme (fold increase at 30 μM with SNP) [4] | EC50 [2, 7] | EC50 [2] | inhibition at 1 µM (Thoracic aortic rings; 1 μM) | inhibition at 3 µM (Thoracic aortic rings) | inhibition at 10 µM (Thoracic aortic rings) | EC50 (Thoracic aortic rings) | Emax ([2]; read-out: HEK WC Assay (% Emax at 1 μM with 10 uM SNP)) | Percent Relaxation at 1 μM (Thoracic aortic rings; 1 μM, printed as number or words instead of code)
1 | Nc1nc(-c2cc(-c3ccon3)n(Cc3ccccc3F)n2)ncc1N=C(c1ccccc1)c1ccccc1 [Compound I-123, N5-(diphenylmethylene)-2-(1-(2-fluorobenzyl)-5-(isoxazol-3-yl)-1H-pyrazol-3-yl)pyrimidine-4,5-diamine] | B (B = 1 to <2 fold increase) | C (C = 2 to <5 fold increase) | 10 to 20% | 10 to 20% | 20 to 40% | 20 to 40% | A (A = no increase to <2 fold increase) | B (B = 2 to <5 fold increase) | – | – | – | – | – | – | – | –
2 | Nc1nc(-c2cc(-c3ccon3)n(Cc3ccccc3F)n2)ncc1NC(=O)OCc1ccccc1 [Compound I-125] | D (D = 5 to <10 fold increase) | F (F = 20 to <30 fold increase) | 80 to 100% | 80 to 100% | 80 to 100% | 80 to 100% | C (C = 5 to <10 fold increase) | D (D = 10 to <30 fold increase) | < 20 µM | – | – | – | – | – | – | –
3 | Nc1cc(C(F)(F)F)nc(-c2cc(-c3ccon3)n(Cc3ccccc3F)n2)n1 [Compound I-117] | B (B = 1 to <2 fold increase) | B (B = 1 to <2 fold increase) | 10 to 20% | 10 to 20% | 0 to 10% | 0 to 10% | A (A = no increase to <2 fold increase) | A (A = no increase to <2 fold increase) | – | – | – | – | – | – | – | –
4 | COc1ccc(C2=Nc3nc(-c4cc(-c5ccon5)n(Cc5ccccc5F)n4)ncc3C(C)(C)O2)cc1 [Compound I-137] | C (C = 2 to <5 fold increase) | D (D = 5 to <10 fold increase) | 40 to 60% | 100 to 120% | 40 to 60% | 20 to 40% | B (B = 2 to <5 fold increase) | C (C = 5 to <10 fold increase) | 40 to 60 µM | – | – | – | – | – | – | –
5 | CC(C)(C)CC(=O)Nc1cnc(-c2cc(-c3ccon3)n(Cc3ccccc3F)n2)nc1N [Compound I-124] | E (E = 10 to <20 fold increase) | F (F = 20 to <30 fold increase) | 100 to 120% | > 120% | 60 to 80% | 60 to 80% | D (D = 10 to <30 fold increase) | D (D = 10 to <30 fold increase) | – | < 20 µM | – | – | – | – | – | –
6 | CC(=O)Nc1cnc(-c2cc(-c3ccon3)n(Cc3ccccc3F)n2)nc1N [Compound I-112, N-(4-amino-2-(1-(2-fluorobenzyl)-5-(isoxazol-3-yl)-1H-pyrazol-3-yl)pyrimidin-5-yl)acetamide] | – | – | – | 100 to 120% | – | 80 to 100% | C (C = 5 to <10 fold increase) | D (D = 10 to <30 fold increase) | – | – | 80 to 100% | > 120% | 100 to 120% | < 2000 nM | – | –
7 | C=CCOC1(c2cnc(-c3cc(-c4ccon4)n(Cc4ccccc4F)n3)nc2N)CC1 [Compound I-118, 5-(1-(allyloxy)cyclopropyl)-2-(1-(2-fluorobenzyl)-5-(isoxazol-3-yl)-1H-pyrazol-3-yl)pyrimidin-4-amine] | D (D = 5 to <10 fold increase) | E (E = 10 to <20 fold increase) | 60 to 80% | 60 to 80% | 40 to 60% | 40 to 60% | C (C = 5 to <10 fold increase) | D (D = 10 to <30 fold increase) | 60 to 100 µM | – | – | – | – | – | – | –
8 | CC(C)(C)NC(=O)c1cnc(-c2cc(-c3ccon3)n(Cc3ccccc3F)n2)nc1N [Compound I-136] | D (D = 5 to <10 fold increase) | E (E = 10 to <20 fold increase) | 60 to 80% | 20 to 40% | 20 to 40% | 20 to 40% | C (C = 5 to <10 fold increase) | D (D = 10 to <30 fold increase) | – | < 20 µM | – | – | – | – | 40 to 60% | –
9 | COC(=O)Nc1c(N)nc(-c2cc(-c3ncco3)n(Cc3ccccc3F)n2)nc1N [Compound I-99] | – | – | – | 20 to 40% | – | 40 to 60% | B (B = 2 to <5 fold increase) | C (C = 5 to <10 fold increase) | – | – | 0 to 10% | 20 to 40% | 80 to 100% | < 2000 nM | – | –
10 | COC(=O)N(C)c1c(N)nc(-c2cc(-c3ccsc3)n(Cc3ccccc3F)n2)nc1N [Compound I-72] | – | – | – | 20 to 40% | – | 20 to 40% | D (D = 10 to <30 fold increase) | D (D = 10 to <30 fold increase) | – | – | – | 20 to 40% | 60 to 80% | – | – | 3.1
11 | Nc1ccnc(-c2cc(-c3cscn3)n(Cc3ccccc3F)n2)n1 [Compound I-92] | – | – | – | 20 to 40% | – | 20 to 40% | B (B = 2 to <5 fold increase) | D (D = 10 to <30 fold increase) | – | – | 60 to 80% | 80 to 100% | – | < 2000 nM | – | –
12 | Nc1ccnc(-c2cc(-c3cocn3)n(Cc3ccccc3F)n2)n1 [Compound I-98] | – | – | – | 20 to 40% | – | 20 to 40% | B (B = 2 to <5 fold increase) | D (D = 10 to <30 fold increase) | – | – | 60 to 80% | 100 to 120% | 100 to 120% | < 2000 nM | – | –
